# Laboratory results: patent US10442807B2, “Aryl substituted bicyclic compounds as herbicides” (FMC Corporation, priority 2015, dated 2019)
# How the values were obtained:
# Assay type in all cases: in vivo
# [1] = test system: sedge, umbrella (small-flower umbrella sedge, Cyperus difformis); assay: Test B flooded paddy test, visual plant response rating; settings: 250 g ai/ha; applied to paddy water at 2-leaf stage; rated after 13 to 15 days; scale 0 to 100, 0 is no effect, 100 is complete control
# Summary of the method: (§1)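 Visual injury score 0 to 100 against controls (0 = no effect, 100 = complete control), taken 13–15 days after treatment. Test compound went into the paddy water of pots flooded 3 cm over the soil surface, water kept at that depth in greenhouse.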
# rice (Oryza sativa) = assay: as above; settings: 250 g ai/ha; applied to paddy water at 2-leaf stage; rated after 13 to 15 days; scale 0 to 100, 0 is no effect, 100 is complete control
# Summary of the method: as §1
# [2] = test system: ducksalad (Heteranthera limosa); assay: as above; settings: 250 g ai/ha; applied to paddy water at 2-leaf stage; rated after 13 to 15 days; scale 0 to 100, 0 is no effect, 100 is complete control
# Summary of the method: as §1
# [3] = test system: barnyardgrass (Echinochloa crus-galli); assay: as above; settings: 250 g ai/ha; applied to paddy water at 2-leaf stage; rated after 13 to 15 days; scale 0 to 100, 0 is no effect, 100 is complete control
# Summary of the method: as §1
# [4] = test system: pigweed (Amaranthus retroflexus); assay: Test A postemergence application, visual injury rating; settings: approx. 10 d, 0 = no effect, 100 = complete control
# Summary of the method: (§2)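 Rated visually against untreated controls after approx. 10 d in greenhouse, scale 0 = no effect, 100 = complete control. Seeded loam/sand blend given directed soil spray preemergence, or plants sprayed at one- to two-leaf stage, 2-10 cm tall; surfactant-containing non-phytotoxic solvent formulation.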
# corn (Zea mays) = assay: as above; settings: approx. 10 d, 0 = no effect, 100 = complete control
# Summary of the method: as §2
# [5] = test system: galium (catchweed bedstraw, Galium aparine); assay: as above; settings: approx. 10 d, 0 = no effect, 100 = complete control
# Summary of the method: as §2
# [6] = test system: foxtail, giant (giant foxtail, Setaria faberii); assay: as above; settings: approx. 10 d, 0 = no effect, 100 = complete control
# Summary of the method: as §2
# [7] = test system: wheat (Triticum aestivum); assay: as above; settings: approx. 10 d, 0 = no effect, 100 = complete control
# Summary of the method: as §2
# [8] = test system: blackgrass (Alopecurus myosuroides); assay: as above; settings: approx. 10 d, 0 = no effect, 100 = complete control
# Summary of the method: as §2
# [9] = test system: barnyardgrass (Echinochloa crus-galli); assay: as above; settings: approx. 10 d, 0 = no effect, 100 = complete control
# Summary of the method: as §2
# kochia (Kochia scoparia) [10] = assay: as above; settings: approx. 10 d, 0 = no effect, 100 = complete control
# Summary of the method: as §2
# [11] = test system: ryegrass, Italian (Italian ryegrass, Lolium multiflorum); assay: as above; settings: approx. 10 d, 0 = no effect, 100 = complete control
# Summary of the method: as §2
# [12] = test system: ragweed (common ragweed, Ambrosia elation); assay: as above; settings: approx. 10 d, 0 = no effect, 100 = complete control
# Summary of the method: as §2
# [13] = test system: pigweed (Amaranthus retroflexus); assay: Test A preemergence, directed soil spray, visual injury rating; settings: approx. 10 d, 0 = no effect, 100 = complete control
# Summary of the method: as §2
# [14] = test system: foxtail, giant (giant foxtail, Setaria faberii); assay: as above; settings: approx. 10 d, 0 = no effect, 100 = complete control
# Summary of the method: as §2
# [15] = test system: barnyardgrass (Echinochloa crus-galli); assay: as above; settings: approx. 10 d, 0 = no effect, 100 = complete control
# Summary of the method: as §2
# kochia (Kochia scoparia) [16] = assay: as above; settings: approx. 10 d, 0 = no effect, 100 = complete control
# Summary of the method: as §2
# [17] = test system: ryegrass, Italian (Italian ryegrass, Lolium multiflorum); assay: as above; settings: approx. 10 d, 0 = no effect, 100 = complete control
# Summary of the method: as §2
# [18] = test system: ragweed (common ragweed, Ambrosia elation); assay: as above; settings: approx. 10 d, 0 = no effect, 100 = complete control
# Summary of the method: as §2
structure (smiles),measurement,setting,value
O=C(Nc1cccc(F)c1F)C1c2nncn2CC1c1ccc(Cl)cc1 (stereo not drawn) [Compound 7],"Plant response rating, Flood, Sedge, Umbrella",[1],0
same,"Plant response rating, Flood, Rice",rice (Oryza sativa),15
same,"Plant response rating, Flood, Ducksalad",[2],50
same,"Plant response rating, Flood, Barnyardgrass",[3],0
same,Pigweed plant response rating (0 to 100 scale),[4]; 125 g ai/ha,0
same,Pigweed plant response rating (0 to 100 scale),[4]; 500 g ai/ha,50
same,Corn plant response rating (0 to 100 scale),corn (Zea mays); 125 g ai/ha,20
same,Corn plant response rating (0 to 100 scale),corn (Zea mays); 500 g ai/ha,30
same,Galium plant response rating (0 to 100 scale),[5]; 125 g ai/ha,40
same,Galium plant response rating (0 to 100 scale),[5]; 500 g ai/ha,50
same,"Foxtail, Giant plant response rating (0 to 100 scale)",[6]; 125 g ai/ha,20
same,"Foxtail, Giant plant response rating (0 to 100 scale)",[6]; 500 g ai/ha,70
same,Wheat plant response rating (0 to 100 scale),[7]; 125 g ai/ha,0
same,Wheat plant response rating (0 to 100 scale),[7]; 500 g ai/ha,20
same,Blackgrass plant response rating (0 to 100 scale),[8]; 125 g ai/ha,0
same,Blackgrass plant response rating (0 to 100 scale),[8]; 500 g ai/ha,0
same,Barnyardgrass plant response rating (0 to 100 scale),[9]; 125 g ai/ha,20
same,Barnyardgrass plant response rating (0 to 100 scale),[9]; 500 g ai/ha,70
same,Kochia plant response rating (0 to 100 scale),kochia (Kochia scoparia) [10]; 125 g ai/ha,0
same,Kochia plant response rating (0 to 100 scale),kochia (Kochia scoparia) [10]; 500 g ai/ha,40
same,"Ryegrass, Italian plant response rating (0 to 100 scale)",[11]; 125 g ai/ha,0
same,"Ryegrass, Italian plant response rating (0 to 100 scale)",[11]; 500 g ai/ha,20
same,Ragweed plant response rating (0 to 100 scale),[12]; 125 g ai/ha,0
same,Ragweed plant response rating (0 to 100 scale),[12]; 500 g ai/ha,60
same,Pigweed plant response rating (0 to 100 scale),[13]; 125 g ai/ha,0
same,Pigweed plant response rating (0 to 100 scale),[13]; 500 g ai/ha,20
same,"Foxtail, Giant plant response rating (0 to 100 scale)",[14]; 125 g ai/ha,40
same,"Foxtail, Giant plant response rating (0 to 100 scale)",[14]; 500 g ai/ha,80
same,Barnyardgrass plant response rating (0 to 100 scale),[15]; 125 g ai/ha,30
same,Barnyardgrass plant response rating (0 to 100 scale),[15]; 500 g ai/ha,70
same,Kochia plant response rating (0 to 100 scale),kochia (Kochia scoparia) [16]; 125 g ai/ha,0
same,Kochia plant response rating (0 to 100 scale),kochia (Kochia scoparia) [16]; 500 g ai/ha,40
same,"Ryegrass, Italian plant response rating (0 to 100 scale)",[17]; 125 g ai/ha,0
same,"Ryegrass, Italian plant response rating (0 to 100 scale)",[17]; 500 g ai/ha,0
same,Ragweed plant response rating (0 to 100 scale),[18]; 125 g ai/ha,0
same,Ragweed plant response rating (0 to 100 scale),[18]; 500 g ai/ha,50
Cc1ccc(C2Cn3c(C)nnc3C2C(=O)Nc2ccccc2F)cc1 (stereo not drawn) [Compound 27],"Plant response rating, Flood, Sedge, Umbrella",[1],0
same,"Plant response rating, Flood, Rice",rice (Oryza sativa),0
same,"Plant response rating, Flood, Ducksalad",[2],70
same,"Plant response rating, Flood, Barnyardgrass",[3],0
same,Pigweed plant response rating (0 to 100 scale),[4]; 125 g ai/ha,0
same,Pigweed plant response rating (0 to 100 scale),[4]; 500 g ai/ha,0
same,Corn plant response rating (0 to 100 scale),corn (Zea mays); 125 g ai/ha,0
same,Corn plant response rating (0 to 100 scale),corn (Zea mays); 500 g ai/ha,0
same,Galium plant response rating (0 to 100 scale),[5]; 125 g ai/ha,0
same,Galium plant response rating (0 to 100 scale),[5]; 500 g ai/ha,40
same,"Foxtail, Giant plant response rating (0 to 100 scale)",[6]; 125 g ai/ha,30
same,"Foxtail, Giant plant response rating (0 to 100 scale)",[6]; 500 g ai/ha,90
same,Wheat plant response rating (0 to 100 scale),[7]; 125 g ai/ha,0
same,Wheat plant response rating (0 to 100 scale),[7]; 500 g ai/ha,0
same,Blackgrass plant response rating (0 to 100 scale),[8]; 125 g ai/ha,0
same,Blackgrass plant response rating (0 to 100 scale),[8]; 500 g ai/ha,20
same,Barnyardgrass plant response rating (0 to 100 scale),[9]; 125 g ai/ha,40
same,Barnyardgrass plant response rating (0 to 100 scale),[9]; 500 g ai/ha,90
same,Kochia plant response rating (0 to 100 scale),kochia (Kochia scoparia) [10]; 125 g ai/ha,0
same,Kochia plant response rating (0 to 100 scale),kochia (Kochia scoparia) [10]; 500 g ai/ha,0
same,"Ryegrass, Italian plant response rating (0 to 100 scale)",[11]; 125 g ai/ha,0
same,"Ryegrass, Italian plant response rating (0 to 100 scale)",[11]; 500 g ai/ha,30
same,Ragweed plant response rating (0 to 100 scale),[12]; 125 g ai/ha,0
same,Ragweed plant response rating (0 to 100 scale),[12]; 500 g ai/ha,0
same,Pigweed plant response rating (0 to 100 scale),[13]; 125 g ai/ha,0
same,Pigweed plant response rating (0 to 100 scale),[13]; 500 g ai/ha,0
same,"Foxtail, Giant plant response rating (0 to 100 scale)",[14]; 125 g ai/ha,80
same,"Foxtail, Giant plant response rating (0 to 100 scale)",[14]; 500 g ai/ha,90
same,Barnyardgrass plant response rating (0 to 100 scale),[15]; 125 g ai/ha,0
same,Barnyardgrass plant response rating (0 to 100 scale),[15]; 500 g ai/ha,90
same,Kochia plant response rating (0 to 100 scale),kochia (Kochia scoparia) [16]; 125 g ai/ha,0
same,Kochia plant response rating (0 to 100 scale),kochia (Kochia scoparia) [16]; 500 g ai/ha,0
same,"Ryegrass, Italian plant response rating (0 to 100 scale)",[17]; 125 g ai/ha,20
same,"Ryegrass, Italian plant response rating (0 to 100 scale)",[17]; 500 g ai/ha,20
same,Ragweed plant response rating (0 to 100 scale),[18]; 125 g ai/ha,0
same,Ragweed plant response rating (0 to 100 scale),[18]; 500 g ai/ha,0
Cc1ccc(C2Cn3c(C)nnc3C2C(=O)Nc2cccc(F)c2F)cc1C (stereo not drawn) [Compound 19],"Plant response rating, Flood, Sedge, Umbrella",[1],0
same,"Plant response rating, Flood, Rice",rice (Oryza sativa),0
same,"Plant response rating, Flood, Ducksalad",[2],20
same,"Plant response rating, Flood, Barnyardgrass",[3],30
same,Pigweed plant response rating (0 to 100 scale),[4]; 125 g ai/ha,0
same,Pigweed plant response rating (0 to 100 scale),[4]; 500 g ai/ha,0
same,Corn plant response rating (0 to 100 scale),corn (Zea mays); 125 g ai/ha,0
same,Corn plant response rating (0 to 100 scale),corn (Zea mays); 500 g ai/ha,30
same,Galium plant response rating (0 to 100 scale),[5]; 125 g ai/ha,0
same,Galium plant response rating (0 to 100 scale),[5]; 500 g ai/ha,50
same,"Foxtail, Giant plant response rating (0 to 100 scale)",[6]; 125 g ai/ha,30
same,"Foxtail, Giant plant response rating (0 to 100 scale)",[6]; 500 g ai/ha,80
same,Wheat plant response rating (0 to 100 scale),[7]; 125 g ai/ha,0
same,Wheat plant response rating (0 to 100 scale),[7]; 500 g ai/ha,30
same,Blackgrass plant response rating (0 to 100 scale),[8]; 125 g ai/ha,0
same,Blackgrass plant response rating (0 to 100 scale),[8]; 500 g ai/ha,70
same,Barnyardgrass plant response rating (0 to 100 scale),[9]; 125 g ai/ha,60
same,Barnyardgrass plant response rating (0 to 100 scale),[9]; 500 g ai/ha,90
same,Kochia plant response rating (0 to 100 scale),kochia (Kochia scoparia) [10]; 125 g ai/ha,0
same,Kochia plant response rating (0 to 100 scale),kochia (Kochia scoparia) [10]; 500 g ai/ha,20
same,"Ryegrass, Italian plant response rating (0 to 100 scale)",[11]; 125 g ai/ha,0
same,"Ryegrass, Italian plant response rating (0 to 100 scale)",[11]; 500 g ai/ha,20
same,Ragweed plant response rating (0 to 100 scale),[12]; 125 g ai/ha,0
same,Ragweed plant response rating (0 to 100 scale),[12]; 500 g ai/ha,20
same,Pigweed plant response rating (0 to 100 scale),[13]; 125 g ai/ha,0
same,Pigweed plant response rating (0 to 100 scale),[13]; 500 g ai/ha,0
same,"Foxtail, Giant plant response rating (0 to 100 scale)",[14]; 125 g ai/ha,70
same,"Foxtail, Giant plant response rating (0 to 100 scale)",[14]; 500 g ai/ha,90
same,Barnyardgrass plant response rating (0 to 100 scale),[15]; 125 g ai/ha,50
same,Barnyardgrass plant response rating (0 to 100 scale),[15]; 500 g ai/ha,90
same,Kochia plant response rating (0 to 100 scale),kochia (Kochia scoparia) [16]; 125 g ai/ha,0
same,Kochia plant response rating (0 to 100 scale),kochia (Kochia scoparia) [16]; 500 g ai/ha,30
same,"Ryegrass, Italian plant response rating (0 to 100 scale)",[17]; 125 g ai/ha,0
same,"Ryegrass, Italian plant response rating (0 to 100 scale)",[17]; 500 g ai/ha,20
same,Ragweed plant response rating (0 to 100 scale),[18]; 125 g ai/ha,0
same,Ragweed plant response rating (0 to 100 scale),[18]; 500 g ai/ha,0
